These results are taken from patent publication US20220175889A1, “NEW DOSAGE REGIMEN FOR INHALED VASOACTIVE INTESTINAL POLYPEPTIDE” (priority 2020, published 2022).

Structures are written as SMILES.

The test system of series [1] is histamine-induced bronchoconstriction. The following applies: single 375 μg inhaled; cited from earlier work.
The format of series [2] is physicochemical. The following applies: M-neb mobile mesh nebulizer MN-300/9.
The test system of series [3] is patients with COVID-19 pulmonary involvement.

Consider `CC[C@H](C)[C@H](NC(=O)[C@H](CO)NC(=O)[C@H](CC(N)=O)NC(=O)[C@H](CC(C)C)NC(=O)[C@H](Cc1ccc(O)cc1)NC(=O)[C@H](CCCCN)NC(=O)[C@H](CCCCN)NC(=O)[C@@H](NC(=O)[C@H](C)NC(=O)[C@H](CCSC)NC(=O)[C@H](CCC(N)=O)NC(=O)[C@H](CCCCN)NC(=O)[C@H](CCCNC(=N)N)NC(=O)[C@H](CC(C)C)NC(=O)[C@H](CCCNC(=N)N)NC(=O)[C@@H](NC(=O)[C@H](Cc1ccc(O)cc1)NC(=O)[C@H](CC(N)=O)NC(=O)[C@H](CC(=O)O)NC(=O)[C@@H](NC(=O)[C@H](Cc1ccccc1)NC(=O)[C@@H](NC(=O)[C@H](C)NC(=O)[C@H](CC(=O)O)NC(=O)[C@H](CO)NC(=O)[C@@H](N)Cc1c[nH]cn1)C(C)C)[C@@H](C)O)[C@@H](C)O)C(C)C)C(=O)N[C@@H](CC(C)C)C(=O)N[C@@H](CC(N)=O)C(N)=O` [Aviptadil], for which, in series [1], the “Protection against histamine-induced bronchoconstriction” value was “the activity could not be shown” and the Side effects result was “no side effects were reported”. Moreover, the “Mass Median Aerodynamic Diameter” value in series [2] is given as 4±0.16 μm. The Tolerability entry in series [3] (human, in vivo) was “well tolerated”. The “Distribution of AEs (%)” value in series [3] (share of the 47 adverse events observed in Treatment Group, 16 patients treatment, 13 placebo) amounted to 40.43%. For the same compound, the “Entering Intensive Care (%)” value in series [3] (treatment group, Age >= 60) is 25%.
